Test results: patent publication US6242433A, “Geranylgeranyl-derivatives, process for the preparation thereof and related pharmaceutical compositions” (Laboratori Baldacci SpA, priority 1995, dated 2001)
Where a name gives a salt, the structure may show the parent alone. Read-outs that look alike come from different tables or passages of the source.

Tests used:
[1] = system: p21rap1; test: inhibition of p21rap1 geranylgeranylation in a malignant tumoral human cell line (electrophoresis, PVDF membrane, specific polyclonal antibody); type: cell-based; settings: 75 μM; 24 hours
Description: The ability of the compounds according to the present invention of inhibiting the protein geranylgeranylation has been evaluated by means of an in vitro test on a malignant tumoral human cell line which has been treated with the following geranylgeranyl-derivatives:
The cells have been treated with increasing amounts of the geranylgeranyl derivatives BAL9504, BAL9505, BAL9603, BAL9605, BAL9608, BAL9609, BAL9610, BAL9611, BAL9613, BAL9503, BAL9614, (1-75 μM) and, after 24 hours, they have been collected and solubilized in a lysis solution containing non-ionic detergents. The soluble fraction has been collected by centrifugation and proteins separated by means of acrylamide gel electrophoresis and subsequently transferred onto a polyvinylidene fluoride (PVDF) membrane.
The presence of the geranylgeranylated protein p21rap1 has been then evidenced by means of a specific polyclonal antibody followed by chemiluminescent detection by means of a secondary antibody linked to alkaline phosphatase as previously described (M. A. Mansfield, FASEB J., S, A1428, 1994).

[2] = system: MIA PaCa-2 cell line; test: citotoxicity on human pancreas cancer MIA PaCa-2 cell line; type: cell-based
Description: The relevance of such an effect on cell proliferation has been then evaluated by studying the citotoxicity of the above-mentioned compounds on the of human pancreas cancer MIA PaCa-2 cell line following the method described by R. Danesi et. al., Mol. Pharmacol., 47, 1106, 1995.
(§1) The citotoxicity of the geranylgeranyl-derivatives BAL9504 and BAL9503 has also been evaluated on the normal diploid fibroblast cells MRC-5 from human lung following the method described by R. Danesi et. al., Mol. Pharmacol., 47, 1106, 1995. Table 2 reports the concentration of the compounds under study that produces 50% growth inhibition (IC50) in MRC-5 and MIA PaCa-2 cell lines together with the sensibility index, that is the ratio between the IC50 in MRC-5 and MIA PaCa-2 cells.

[3] = system: normal diploid fibroblast cells MRC-5; test: citotoxicity on normal diploid fibroblast cells MRC-5 from human lung; type: cell-based; settings: Table 2; for IC50: Homo sapiens, MRC5, MRC-5, read-out: IC50 (50% growth inhibition); for Sensibility Index (ratio between the IC50 in MRC-5 and MIA PaCa-2 cells): IC50 MRC-5 / IC50 MIA PaCa-2
Description: as §1

[4] = system: MIA PaCa-2 cell line; test: apoptosis in MIA PaCa-2 cells (ELISA of fragmented DNA); type: cell-based, human; settings: 1-75 μM; vs non-treated cells
Description: Apoptosis consists in enzymatic digestion of nuclear DNA by endogenous nucleases within the cell and it occurs when cell replication is impaired by agents that block cell cycle progression towards mitosis.

[5] = Table 1, read-out: IC50 (the concentration that produces 50% reduction in cell growth)
[6] = Table 2, read-out: IC50 (50% growth inhibition)

Compound	amount of the non-isoprenylated protein relative to the isoprenylated one (p21rap1) [1]	IC50 [2, 5]	IC50 [2, 6]	IC50 [3]	Sensibility Index (ratio between the IC50 in MRC-5 and MIA PaCa-2 cells) [3]	induction of death for apoptosis [4]
CC(C)=CCC/C(C)=C/CC/C(C)=C/CC/C(C)=C/COC(=O)NS(N)(=O)=O [BAL9503, (E,E,E)-O-(3,7,11,15-tetramethyl-2,6,10,14-hexadecatetraenyl)-N-(aminosulfonyl)urethane]	equal to that of the isoprenylated one	10.5 µM	10.5 µM	256 µM	24.4	induce death for apoptosis
CC(C)=CCC/C(C)=C/CC/C(C)=C/CC/C(C)=C/CONC(=O)CP(=O)(O)O [BAL9504, dipotassium salt of (E,E,E)-{2-oxo-2-[[(3,7,11,15-tetramethyl-2,6,10,14-hexadecatetraenyl)oxy]amino]ethyl}phosphonic acid]	equal to that of the isoprenylated one	2.1 µM	2.1 µM	54.6 µM	26	induce death for apoptosis
CCOP(=O)(O)CC(=O)NOC/C=C(\C)CC/C=C(\C)CC/C=C(\C)CCC=C(C)C [BAL9505, monosodium salt of the monoethyl-ester of (E,E,E)-{2-oxo-2[[(3,7,11,15-tetramethyl-2,6,10,14-hexadecatetraenyl)oxy]amino]ethyl}phosphonic acid]	equal to that of the isoprenylated one	> 30 µM				
CC(C)=CCC/C(C)=C/CC/C(C)=C/CC/C(C)=C/CONC(=O)CCP(=O)(O)O [BAL9603, dipotassium salt of (E,E,E)-{3-oxo-3-[[(3,7,11,15-tetramethyl-2,6,10,14-hexadecatetraenyl)oxy]amino]propyl}phosphonic acid]		> 30 µM				
CC(C)=CCC/C(C)=C/CC/C(C)=C/CC/C(C)=C/CNC(=O)CP(=O)(O)O [BAL9605, dipotassium salt of (E,E,E)-[2-oxo-2-[(3,7,11,15-tetramethyl-2,6,10,14-hexadecatetraenyl)amino]ethyl]phosphonic acid]		7.7 µM				induce death for apoptosis
CC(C)=CCC/C(C)=C/CC/C(C)=C/CC/C(C)=C/CNC(=O)CCP(=O)(O)O [BAL9608, dipotassium salt of (E,E,E)-[3-oxo-3-[(3,7,11,15-tetramethyl-2,6,10,14-hexadecatetraenyl)amino]propyl]phosphonic acid]		16.7 µM				
CC(C)=CCC/C(C)=C/CC/C(C)=C/CC/C(C)=C/CCP(=O)(O)CP(=O)(O)O [BAL9609, tripotassium salt of (E,E,E)-[[(4,8,12,16-tetramethyl-3,7,11,15-heptadecatetraenyl)hydroxyphosphoryl]methyl]phosphonic acid]		3.5 µM				induce death for apoptosis
CC(C)=CCC/C(C)=C/CC/C(C)=C/CC/C(C)=C/CCP(=O)(O)C(C)(C)P(=O)(O)O [BAL9610, tripotassium salt of (E,E,E)-1-methyl-1[(4,8,12,16-tetramethyl-3,7,11,15-heptadecatetraenyl)hydroxyphosphoryl]ethylphosphonic acid]		> 30 µM				
CCC(CC)(P(=O)(O)O)P(=O)(O)CC/C=C(\C)CC/C=C(\C)CC/C=C(\C)CCC=C(C)C [BAL9611, tripotassium salt of (E,E,E)-1-ethyl-1-[(4,8,12,16-tetramethyl-3,7,11,15-heptadecatetraenyl)hydroxyphosphoryl]propylphosphonic acid]		1.5 µM				induce death for apoptosis
CC(C)=CCC/C(C)=C/CC/C(C)=C/CC/C(C)=C/CCP(=O)(O)O [BAL9613, dipotassium salt of (E,E,E)-(4,8,12,16-tetramethyl-3,7,11,15-heptadecatetraenyl)phosphonic acid]		> 30 µM				
CC(C)=CCC/C(C)=C/CC/C(C)=C/CC/C(C)=C/CONS(N)(=O)=O [BAL9614, (E,E,E)-1-[(aminosulfonyl)aminoxy]-3,7,11,15-tetramethyl-2,6,10,14-hexadecatetraene]		11.9 µM				
